# Experiments:
# [1] = target: T1, Angiotensin-converting enzyme (Rattus norvegicus, UniProt P47820); experiment: In Vitro Inhibition of NEP
# T1 sequence (P47820 whole entry): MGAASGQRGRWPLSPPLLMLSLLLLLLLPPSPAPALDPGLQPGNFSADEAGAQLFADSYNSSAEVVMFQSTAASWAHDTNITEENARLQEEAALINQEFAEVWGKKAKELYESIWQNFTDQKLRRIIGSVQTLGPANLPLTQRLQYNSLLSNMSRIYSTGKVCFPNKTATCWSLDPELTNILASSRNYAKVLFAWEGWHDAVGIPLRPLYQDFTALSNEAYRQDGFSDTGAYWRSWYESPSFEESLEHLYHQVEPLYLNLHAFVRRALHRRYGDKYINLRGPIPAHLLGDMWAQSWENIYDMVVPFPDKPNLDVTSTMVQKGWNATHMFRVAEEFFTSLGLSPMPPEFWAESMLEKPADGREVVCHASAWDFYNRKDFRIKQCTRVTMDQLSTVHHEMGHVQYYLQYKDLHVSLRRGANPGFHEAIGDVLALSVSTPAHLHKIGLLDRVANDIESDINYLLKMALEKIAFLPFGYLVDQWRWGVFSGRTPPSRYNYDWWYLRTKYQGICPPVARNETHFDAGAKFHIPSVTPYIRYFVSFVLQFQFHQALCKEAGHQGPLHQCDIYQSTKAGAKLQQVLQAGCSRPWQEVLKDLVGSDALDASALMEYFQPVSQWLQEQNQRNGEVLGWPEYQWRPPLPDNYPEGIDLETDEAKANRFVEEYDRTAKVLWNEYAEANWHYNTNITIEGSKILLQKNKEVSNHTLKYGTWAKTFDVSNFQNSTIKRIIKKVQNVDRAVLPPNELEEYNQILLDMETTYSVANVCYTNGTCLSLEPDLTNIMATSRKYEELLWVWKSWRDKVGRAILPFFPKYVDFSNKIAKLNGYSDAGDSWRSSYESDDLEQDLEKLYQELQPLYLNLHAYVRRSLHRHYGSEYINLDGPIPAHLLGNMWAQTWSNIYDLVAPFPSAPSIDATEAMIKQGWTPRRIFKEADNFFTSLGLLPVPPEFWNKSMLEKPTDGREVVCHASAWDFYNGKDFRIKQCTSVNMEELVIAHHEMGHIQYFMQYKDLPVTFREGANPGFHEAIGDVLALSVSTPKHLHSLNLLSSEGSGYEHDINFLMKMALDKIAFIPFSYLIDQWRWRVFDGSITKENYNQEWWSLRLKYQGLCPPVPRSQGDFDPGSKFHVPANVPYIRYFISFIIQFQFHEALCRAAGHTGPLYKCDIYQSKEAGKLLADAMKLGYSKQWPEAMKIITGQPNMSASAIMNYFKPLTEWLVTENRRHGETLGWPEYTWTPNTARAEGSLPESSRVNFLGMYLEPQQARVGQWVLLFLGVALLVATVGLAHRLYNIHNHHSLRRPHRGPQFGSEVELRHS
# Procedure: (§1) NEP was preincubated in black 96-well microplates with or without increasing concentrations of inhibitors. DGPA was added, and the reaction was stopped after 1 hr of incubation. The fluorescence was measured at excitation wavelength = 340 nm, emission wavelength = 530 nm.
# [2] = target: T2, Neprilysin (Oryctolagus cuniculus, UniProt P08049); experiment: In Vitro Inhibition of NEP; details: pH 7.4; 37 °C
# T2 sequence (P08049 whole entry): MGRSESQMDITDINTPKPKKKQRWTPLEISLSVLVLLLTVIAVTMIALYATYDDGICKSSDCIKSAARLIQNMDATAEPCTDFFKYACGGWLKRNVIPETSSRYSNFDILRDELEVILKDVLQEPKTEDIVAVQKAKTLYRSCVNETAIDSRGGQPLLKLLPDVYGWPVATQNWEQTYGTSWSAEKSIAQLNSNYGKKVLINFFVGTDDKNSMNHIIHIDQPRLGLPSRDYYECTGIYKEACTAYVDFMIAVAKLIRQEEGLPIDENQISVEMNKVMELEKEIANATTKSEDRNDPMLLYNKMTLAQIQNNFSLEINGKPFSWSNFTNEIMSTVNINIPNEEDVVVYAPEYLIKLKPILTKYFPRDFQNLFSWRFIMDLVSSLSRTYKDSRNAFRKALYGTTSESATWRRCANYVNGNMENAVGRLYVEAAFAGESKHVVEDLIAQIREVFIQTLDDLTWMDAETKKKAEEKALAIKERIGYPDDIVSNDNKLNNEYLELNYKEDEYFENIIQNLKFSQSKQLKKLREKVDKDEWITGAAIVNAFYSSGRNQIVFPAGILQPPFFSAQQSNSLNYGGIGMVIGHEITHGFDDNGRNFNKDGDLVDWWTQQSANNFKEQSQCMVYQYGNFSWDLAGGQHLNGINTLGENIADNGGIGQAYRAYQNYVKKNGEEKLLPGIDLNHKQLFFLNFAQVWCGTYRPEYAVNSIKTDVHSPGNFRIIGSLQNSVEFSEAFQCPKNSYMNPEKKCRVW
# Procedure: as §1
compound,measurement,setting,value
"O=C(O)[C@H](Cc1c[nH]c2ccccc12)NC(=O)[C@@H](CS)[C@@H]1CCCc2ccccc21 [(2S)-3-(1H-indol-3-yl)-2-[(2S)-3-sulfanyl-2-[(1S)-1,2,3,4-tetrahydronaphthalen-1-yl]propanamido]propanoic acid]",Ki,[1],26 nM
same,Ki,[2],8 nM

# Source: BindingDB's records for doi:10.1021/jm0005454 (Cnrs, 2002)
